Measurements: patent US4443448A, “Indane derivatives, pharmaceutical compositions thereof and method of preparation” (priority 1980, dated 1984)
Read-outs that look alike come from different tables or passages of the source.

Tests used:
in vivo [1] = assay: in vivo; design: species or system rats; conditions: for Ratio catalep./Amphet.: catalepsy ED50 / amphetamine antagonism ED50; for ED50: rat, in vivo, po
Description: A vertical wire netting (50 cm×49 cm). The meshes (openings) of the netting are square (1 cm×1 cm). The wire diameter is 2 mm.
The animals are labeled and used in groups of five. The test substance is administered orally (p.o) at 4 dose levels selected from the fixed dose scale.
The animals are placed in the middle of the vertical wire netting 60, 120, 180, 240, 300 and 360 minutes after administration of the test compound. The animals are considered cataleptic when they remain immobile during a period of 15 seconds.
This cataleptic reaction is designated +. If the rats are "atonic" and passively slide down the wire mesh they are considered not cataleptic. If the animals climb up and down the wire mesh they are nor cataleptic.
In both situations the designation--is used.

in vivo [2] = conditions: iv
amphetamine = assay: Amphetamine antagonism in rats; format: in vivo; conditions: Rattus norvegicus, po, rats, p.o., amphetamine 10 mg/kg base i.v.; read-out: Amphetamine antag. ED50 p.o.
Description: Amphetamine antagonism (ED50 mg/kg i.p.)
(§1) Perspex observation cages without bottom and lid, consisting of 5 sections each measuring 12×25×30 cm.
The test substance is given p.o. in a reasonable dose based on the determined LD50. Two or 24 hours later an intravaneous injection of amphetamine sulphate 13.6 mg/kg (10 mg/kg amphetamine base) is given, after which the rats are placed individually in the cages. The cages are placed on white corrugated paper. Five rats are used for each dose level. Observations are made after 55 minutes and 65 minutes-observation time: 1 minute. The animals are observed for stereotypy (movements of the head, compulsive gnawing). […] If the compound has full antagonistic effect another group of rats is used at a lower dose. […] The result is stated as fractions: 0/5, 1/5, 2/5, 3/5, 4/5 and 5/5, where 0, 1, 2, 3, 4 and 5 indicate the number of rats which have not shown stereotypy at the dose in question. The results are calculated as ED50 in mg/kg.

methylphenidate = assay: Methylphenidate antagonism in mice; format: in vivo; conditions: for ED50: Mus musculus, ip
Description: Methylphenidate antagonism (ED50 mg/kg i.p.)
as §1
3×2 mice are used for each dose level. Two or 24 hours after injection of test substance, methylphenidate, 60 mg/kg, is injected s.c. After administration of methylphenidate the mice are placed in the observation cages, 2 in each cage, where they remain for exactly 1 hour. The cages were placed on corrugated paper, the corrugations facing upwards. It is examined whether the mice have been biting the corrugated paper or not. […] If one or more of the control pairs have not been biting, the test has to be repeated on a new set of mice.
The result is stated in fractions: 0/3, 1/3, 2/3 and 3/3 where 0, 1, 2 and 3 are the number of pairs which have not been biting on receipt of the dose in question.

[3] = Mouse grid shock (analgesia); format: in vivo; conditions: mice, minimal effective dose, in mg/kg
Description: The mouse grid consists of a perspex cage with wire grid bottom and a perspex lid, on which is placed a microphone sensitive to the frequency of a mouse squeak. A stimulator with motordriven potentiometer applies a sequence of square wave impulses of continuously increasing milliamperage to the grid. Frequency of impulses 20 cycles/sec., duration 5 msec. Milliamperage is recorded on a digital amperemeter connected to the stimulator. Activation of the microphone by a mouse-squeak cuts off the current and the final milliamperage appears on the meter.
Five mice are used for each dose level. Each mouse serves as its own control.
Prior to the administration of test substance the animals are placed on the grid one at a time, and the pain threshold is determined by increasing the current intensity until the mouse squeaks. The pain threshold may be read on the milliamperemeter. Fifteen minutes and 30 minutes after administration of test substance the mice are tested again and the pain thresholds recorded.
Analgesic effect is present, when the pain threshold is increased over the pre-dosing value (control value). The results are stated as % increase in pain threshold calculated on the basis of the control value.
The registration can also be done as an on-line procedure. In this case the punching instruction and punching cards will be provided automatically and the results will be registered as a minimal effective dose (MED) determined after van der Waerdens X-test.

[4] = 2 h, read-out: MePh antag. ED50 2 hr i.p., mice, test substance i.p., 2 hr before methylphenidate 60 mg/kg s.c.
[5] = rats, p.o., strongest effect within first 6 hours, read-out: Catalep. (catalepsy wire mesh, rat, max, ED50)
[6] = read-out: MePh antag. ED50 2 hr i.p., mice, test substance i.p., 2 hr before methylphenidate 60 mg/kg s.c.

SMILES	Ratio catalep./Amphet. (in vivo [1])	ED50 (in vivo [1]; Catalep. (catalepsy wire mesh, rat, max, ED50)) [mg/kg]	LD50 (in vivo [2]) [mg/kg]	ED50 (amphetamine) [mg/kg]	ED50 (methylphenidate; [4]) [mg/kg]	MED Grid Shock [3]	MePh antag. ED50 2 hr i.p. (methylphenidate; mice, test substance i.p., 2 hr before methylphenidate 60 mg/kg s.c.) [mg/kg]	ED50 (in vivo [1]; [5]) [mg/kg]	ED50 (methylphenidate; [6]) [mg/kg]
OCCN1CCN(C2CC(c3ccc(F)cc3)c3ccc(C(F)(F)F)cc32)CC1 (centres unmarked) [Lu 18-012]	2	0.3	56	0.16	0.03	0.6			
O=C(CCCN1CCN(C2CC(c3ccc(F)cc3)c3ccc(F)cc32)CC1)c1ccc(F)cc1 (centres unmarked) [Lu 17-145]					> 40	5			
CN1CC[C@]23c4c5ccc(O)c4O[C@H]2[C@@H](O)C=C[C@H]3[C@H]1C5 [morfine, reference compound]						2.5	> 40		
CC(C)N1CCN(C2CC(c3ccc(F)cc3)c3ccc(Cl)cc32)CC1 (centres unmarked) [Lu 17-129]	0.4		80	1.8	0.8	5		0.8	
Fc1ccc(C2CC(N3CCN(CC4CCCCC4)CC3)c3cc(F)ccc32)cc1 (centres unmarked) [Lu 17-100]			93	> 40	4	10		40	
CC(O)CN1CCN(C2CC(c3ccc(F)cc3)c3ccc(F)cc32)CC1 (centres unmarked) [Lu 17-143, 1-(2-hydroxy-1-propyl)-4-(3-(4'-fluorophenyl)-6-fluoro-1-indanyl)piperazine]	3.1		130	5.4	1.2	< 1.3		16.6	
CSc1ccc2c(c1)[C@H](N1CCN(C)CC1)C[C@H]2c1ccc(F)cc1 (relative stereo) [Lu 17-055]	0.7		68	10	1.2	5		7.2	
CSc1ccc2c(c1)[C@H](N1CCN(CCO)CC1)C[C@H]2c1ccc(F)cc1 (relative stereo) [Lu 17-053]			68	9.1	1.3	2.5		6.2	
Cc1ccc2c(c1)[C@H](N1CCN(C)CC1)C[C@H]2c1ccc(F)cc1 (relative stereo) [Lu 17-048]	0.7		80	6.7	0.6	0.16		4.8	
O=C1NCCN1CCN1CCN(C2CC(c3ccc(F)cc3)c3ccc(F)cc32)CC1 (centres unmarked) [Lu 17-045]				> 80	> 40	2.5		> 80	
CN1CCN(C2CC(c3ccc(F)cc3)c3ccc(C(F)(F)F)cc32)CC1 (centres unmarked) [Lu 18-023]	2		94	0.2	1.1	1.25		0.4	
Cc1ccc2c(c1)[C@H](N1CCN(CCO)CC1)C[C@H]2c1ccc(F)cc1 (relative stereo) [Lu 17-050]	0.8		80	9.4	3.4	0.63		7.7	
Fc1ccc(C2CC(N3CCN(CC=Cc4ccccc4)CC3)c3cc(F)ccc32)cc1 (centres unmarked) [Lu 18-162, 1-(3-phenyl-2-propenyl)-4-(3-(4'-fluorophenyl)-6-fluoro-1-indanyl)piperazine]					29				
CN1CCN([C@@H]2C[C@@H](c3ccccc3)c3ccccc32)CC1 (relative stereo) [Lu 17-091]					> 40	10			
OCCN1CCN([C@@H]2C[C@@H](c3ccc(F)cc3)c3ccc(F)cc32)CC1 (relative stereo) [Lu 13-117, 1-(2-hydroxyethyl)-4-(3-(4'-fluorophenyl)-6-fluoro-1-indanyl)piperazine]	13		113	6	3	0.63		79	
OCCN1CCN([C@@H]2C[C@H](c3ccc(F)cc3)c3ccccc32)CC1 (relative stereo) [Lu 17-124]					> 40	5			

SMILES	Ratio catalep./Amphet. (in vivo [1])	ED50 (in vivo [1]; Catalep. (catalepsy wire mesh, rat, max, ED50)) [mg/kg]	LD50 (in vivo [2]) [mg/kg]	ED50 (amphetamine) [mg/kg]	ED50 (methylphenidate; [4]) [mg/kg]	MED Grid Shock [3]	MePh antag. ED50 2 hr i.p. (methylphenidate; mice, test substance i.p., 2 hr before methylphenidate 60 mg/kg s.c.) [mg/kg]	ED50 (in vivo [1]; [5]) [mg/kg]	ED50 (methylphenidate; [6]) [mg/kg]
OCCN1CCN([C@@H]2C[C@H](c3ccc(F)cc3)c3ccc(Cl)cc32)CC1 (relative stereo) [Lu 17-120]					3.2	2.5		> 20	
OCCCCN1CCN(C2CC(c3ccc(F)cc3)c3ccc(C(F)(F)F)cc32)CC1 (centres unmarked) [Lu 18-182]			56	0.2	0.2			0.2	
OCC(CO)N1CCN(C2CC(c3ccc(F)cc3)c3ccc(F)cc32)CC1 (centres unmarked) [Lu 18-134, 1-(1,3-dihydroxy-2-propy)-4-(3-(4'-fluorophenyl)-6-fluoro-1-indanyl)piperazine]	4.9			11.7	1.9	< 5		57	
CCC(=O)O[C@](Cc1ccccc1)(c1ccccc1)[C@H](C)CN(C)C [dextropropoxyphene, reference compound]			34			20			> 20
OCCN1CCN([C@@H]2C[C@@H](c3ccc(F)cc3)c3cc(Cl)ccc32)CC1 (relative stereo) [Lu 17-116]					> 40	10			
Cc1ccc2c(c1)C(N1CCN(CC3CC3)CC1)CC2c1ccc(F)cc1 (centres unmarked) [Lu 17-130]				> 40	5	5		> 40	
CS(=O)(=O)c1ccc2c(c1)C(N1CCN(CCO)CC1)CC2c1ccc(F)cc1 (centres unmarked) [Lu 18-041]			> 160		10	5			
Fc1ccc(C2CC(N3CCN(CCc4ccccc4)CC3)c3cc(F)ccc32)cc1 (centres unmarked) [Lu 18-159]			40		15				
OCCN1CCN([C@@H]2C[C@@H](c3ccccc3)c3ccccc32)CC1 (relative stereo) [Lu 17-061]					> 40	10			
CSc1ccc2c(c1)[C@H](N1CCN(C)CC1)C[C@@H]2c1ccc(F)cc1 (relative stereo) [Lu 17-056]					20	5			
COc1ccc2c3c1O[C@H]1[C@@H](O)C=C[C@H]4[C@@H](C2)N(C)CC[C@@]341 [codeine, reference compound]			110			20			> 20
Fc1ccc(C2CC(N3CCN(CC4CC4)CC3)c3cc(F)ccc32)cc1 (centres unmarked) [Lu 18-157, 1-cyclopropylmethyl-4-(3-(4'-fluorophenyl)-6-fluoro-1-indanyl)piperazine]			68		5				
OCC(CO)N1CCN(C2CC(c3ccc(F)cc3)c3ccc(C(F)(F)F)cc32)CC1 (centres unmarked) [Lu 18-185]				0.3	0.2			0.3	
CN1CCN(C2CC(c3ccc(F)cc3)c3cc(F)ccc32)CC1 (centres unmarked) [Lu 17-071]					> 40	10		31	
O=C1OCCN1CCN1CCN(C2CC(c3ccc(F)cc3)c3ccc(F)cc32)CC1 (centres unmarked) [Lu 17-039]			113	51	9.1			> 80	
